Read-outs that look alike come from different tables or passages of the source.
Legend:
[1] = test system: Lactozym® Pure (lactase, Novozymes A/S); test: Lactose turn-over per enzyme molecule in milk at 5°C; format: biochemical
Protocol: (§1) In a preferred embodiment, the enzyme having lactase activity has an initial lactose turn-over of at least 10 per second per enzyme molecule in milk at 5°C. The initial lactose turn-over may be determined, e.g., when 0-10% of the lactose has been hydrolyzed. The skilled person will know how to determine the initial lactose turn-over per enzyme molecule. For example, it can be a direct measurement of lactose using HPLC or indirect using a glucose detection method.

[2] = test system: Saphera® (lactase, Novozymes A/S); test: as above; format: biochemical
Protocol: as §1

[3] = test system: experimental Bifidobacterium lactase; details: substrate lactose, cited from earlier work
[4] = initial rate (4.7% to 4.23% lactose)

For `OC[C@H]1O[C@@H](O[C@H]2[C@H](O)[C@@H](O)C(O)O[C@@H]2CO)[C@H](O)[C@@H](O)[C@H]1O` (some centres unmarked) [lactose], the “average lactose turn-over from initial lactose of 4.7% to 0.01% residual lactose” value [1] was “about 5 sec^-1”, the “average lactose turn-over from initial lactose of 4.7% to 0.1% residual lactose” value [1] was “about 9 sec^-1” and the “initial lactose turn-over per enzyme molecule” value [1, 4] was “about 36 sec^-1”. The “average lactose turn-over from initial lactose of 4.7% to 0.01% residual lactose” value [2] was “about 18 sec^-1”, the “average lactose turn-over from initial lactose of 4.7% to 0.1% residual lactose” value [2] was “about 23 sec^-1” and the “initial lactose turn-over per enzyme molecule” value [2, 4] was “about 89 sec^-1”. For the same compound, the Km ([3]; at 5°C) was 8 mM and the Km ([3]; at 37°C) was 13 mM.
